Measured values published in patent US20240299400A1, “Transcription Factor GLI1 Inhibitors and Uses Thereof” (University of Connecticut, priority 2023, published 2024).

Assays:
TGFBR1 = target: T1, TGFBR1 (Homo sapiens, UniProt P36897); assay: LanthaScreen binding assay, TGFBR1; conditions: average of three replicates, read-out: % inhibition of the kinase TGFBR1
T1 construct: purchased ThermoFisher Scientific (Madison, WI, USA), contract service
T1 sequence (P36897 34-503): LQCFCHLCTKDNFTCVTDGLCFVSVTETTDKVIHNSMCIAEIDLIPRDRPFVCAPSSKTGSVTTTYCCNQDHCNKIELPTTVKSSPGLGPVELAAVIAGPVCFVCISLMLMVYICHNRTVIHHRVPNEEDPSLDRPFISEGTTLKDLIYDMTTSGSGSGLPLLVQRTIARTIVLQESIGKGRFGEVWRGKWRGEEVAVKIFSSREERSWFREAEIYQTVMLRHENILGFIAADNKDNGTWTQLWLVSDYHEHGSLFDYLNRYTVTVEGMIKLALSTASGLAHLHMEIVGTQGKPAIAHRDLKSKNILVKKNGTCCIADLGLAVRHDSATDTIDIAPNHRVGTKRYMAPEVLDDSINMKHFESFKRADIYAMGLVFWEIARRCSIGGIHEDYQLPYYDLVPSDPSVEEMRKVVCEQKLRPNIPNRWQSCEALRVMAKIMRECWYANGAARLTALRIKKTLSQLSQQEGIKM
Protocol: Kinase screening experiments. Kinase inhibition/binding experiments were performed by ThermoFisher Scientific (Madison, WI, USA) as a contract service, utilizing their default protocols [G. Yernale, A comprehensive review on the biological interest of quinoline and its derivatives. Bioorg. Med. Chem. 32 (2021) 115973]. Briefly, for ZLyte assay, compound in DMSO (100 nL), kinase buffer (2.4 μL), peptide/kinase mixture (5 μL), and ATP solution (2.5 μL) were mixed in a black 384-well plate. Following a 30 s plate shake to mix reagents, the kinase assay mixture was incubated at RT for 60 min. Following addition of the development reagent solution to each well, another 60 min incubation was performed at RT for reaction development. Fluorescent signal was recorded and subsequently analyzed.
For the LanthaScreen Binding assay, compounds in DMSO (160 nL), kinase buffer (3.84 μL), kinase/antibody mixture (8.0 μL), and tracer (4.0 μL) were mixed in a white 384-well plate. Following a 30 s plate shake to mix the reagents, the kinase assay mixture was incubated at RT for 60 min. Fluorescent signals were recorded and subsequently analyzed.

GLI1 protein levels = assay: Western blot GLI1 protein expression in ASZ001 cells; assay type: cell-based, murine; conditions: 10 and 25 μM
Protocol: (§1) ASZ001 cells were plated as described above and treated with drugs or vehicle control. Following incubation, cells were washed with chilled PBS and lysed with RIPA buffer containing […] PMSF protease inhibitor (Thermo Scientific #26978). Supernatant was collected following 15 min centrifugation at 12,000 rpm and 4° C. Protein concentrations from cell extracts were determined through the BCA kit (Pierce #23228) per the manufacturer's instructions. Proteins from either cell lysate or cell-free biochemical assay were then loaded on 12% SDS-PAGE. Following electrophoresis, proteins were transferred onto nitrocellulose membrane at 100 V for 120 min at 4° C. On a clean tray with constant gentle shaking, the membrane was sequentially submerged in 5% BSA for 1 h, and incubated with the primary antibody indicated overnight at 4° C. After washes with TBST, the appropriate secondary antibody was added to the tray for a 2 h incubation at RT. Chemiluminescent detection on film was visualized using ECL reagents (BioRad #1705060) and subsequently quantitated using Image J (http://imagej.nih.gov). Primary antibodies were used at 1:2000 dilution and are as follows: GLI1 (#MA5-32553); Gli2 (#PA5-79314); β-Actin (#PA1-16889). Secondary antibody (Goat anti-Rabbit, #32460) was used at a 1:5000 dilution. All antibodies were purchased from Invitrogen.

GLI2 protein expression = assay: Western blot GLI2 protein expression in ASZ001 cells; assay type: cell-based, murine; conditions: 25 μM
Protocol: as §1

Row | SMILES | inhibition at 1 µM (TGFBR1) [%] | GLI1 protein levels (in words) (GLI1 protein levels) | GLI2 protein expression (in words) (GLI2 protein expression)
1 | CCN(CC)c1ccc(C(Nc2ccccn2)c2ccc3ccc(C)nc3c2OC)cc1 (stereo not shown) [Compound 20, N-((4-Diethylaminophenyl)(8-methoxy-2-methylquinolin-7-yl)methyl)pyridin-2-amine] | 6 |  | 
2 | Cc1ccc2ccc(C(Nc3ccccn3)c3ccncc3)c(O)c2n1 (stereo not shown) [Compound 39, 7-((Pyridin-4-yl)(pyridin-2-ylamino)methyl)-2-methylquinolin-8-ol] | 2 | significantly reduced | significantly suppressed
3 | Cc1ccc2ccc(C(Nc3ccccn3)c3ccc(N4CCCC4=O)cc3)c(O)c2n1 (stereo not shown) [Compound 48, 7-((4-(2-Oxopyrrolidin-1-yl)phenyl)(pyridin-2-ylamino)methyl)-2-methylquinolin-8-ol] | -2 | significantly reduced | significantly suppressed
